Results published in ChEMBL document CHEMBL1147260, “Heliotropamide, a novel oxopyrrolidine-3-carboxamide from Heliotropium ovalifolium” (J Nat Prod, 2003).
Active and inactive are the calls of the source.

Experiments:
Bacillus subtilis = assay: Antibacterial activity against Bacillus subtilis; assay type: functional, organism-based
Candida albicans = assay: Antifungal activity against Candida albicans; assay type: functional, organism-based
Cladosporium cucumerinum = assay: Antifungal activity against Cladosporium cucumerinum; assay type: functional, organism-based
[1] = Antioxidant activity assessed as DPPH scavenging activity; assay type: functional
[2] = biological target: Acetylcholinesterase (Homo sapiens) (UniProt P22303); assay: Inhibition of acetylcholinesterase

Measured: Activity

Acetylcholinesterase (Homo sapiens), sequence (P22303 whole entry): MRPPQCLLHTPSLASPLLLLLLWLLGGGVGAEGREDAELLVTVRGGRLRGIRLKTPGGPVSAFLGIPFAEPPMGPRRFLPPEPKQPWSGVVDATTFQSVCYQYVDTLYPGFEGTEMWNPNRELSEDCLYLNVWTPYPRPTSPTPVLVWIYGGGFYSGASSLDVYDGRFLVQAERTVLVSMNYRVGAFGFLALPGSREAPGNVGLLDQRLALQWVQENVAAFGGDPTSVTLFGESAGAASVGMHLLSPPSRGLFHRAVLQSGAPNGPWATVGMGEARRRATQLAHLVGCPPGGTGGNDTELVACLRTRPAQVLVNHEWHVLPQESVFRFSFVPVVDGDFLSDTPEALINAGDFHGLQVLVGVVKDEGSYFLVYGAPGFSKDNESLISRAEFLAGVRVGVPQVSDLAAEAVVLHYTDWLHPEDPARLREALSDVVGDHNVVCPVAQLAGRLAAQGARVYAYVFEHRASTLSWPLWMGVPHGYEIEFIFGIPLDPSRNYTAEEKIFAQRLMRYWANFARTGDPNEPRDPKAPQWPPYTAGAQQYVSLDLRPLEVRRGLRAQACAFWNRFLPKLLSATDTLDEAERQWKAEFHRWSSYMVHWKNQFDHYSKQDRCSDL

COc1cc(/C=C2\C(=O)N(CCc3ccc(O)cc3)[C@H](c3ccc(O)c(OC)c3)[C@H]2C(=O)NCCc2ccc(O)cc2)ccc1O
inactive: all assays above

COc1cc(/C=C2\C(=O)N(CCc3ccc(OC(C)=O)cc3)[C@H](c3ccc(OC(C)=O)c(OC)c3)[C@H]2C(=O)NCCc2ccc(OC(C)=O)cc2)ccc1OC(C)=O
inactive: all assays above
